One assay concerns Staphylococcus. Description: Example 2: bacterial cultivation, resistance. In kind it is cell-based. Particulars: bacterial cultivation from the leg ulcer.
In another assay the test system is amputation wound. The assay is described as follows: Example 4: treatment of an amputation wound. As to conditions: 750 mg×3, prescribed May 24, 2012, before the test treatments. In kind it is in vivo, human. On the procedure: If nothing else is mentioned herein below, the treatment preparation used in the examples below was prepared just before application by mixing one volume of a component containing aqueous NaOCl in an amount of 1-2% (by weight) with one volume of a component containing amino acids lys+Glu+Leu (1:1:1 relation and 0.7-0.8% total amino content by weight), TiO2 (0.04% by weight), NaCl (0.3-0.6% by weight), Na-CMC (medium viscosity; 3% by weight), and NaOH (added to adjust the pH to be 9.5-10.5 by weight). Medium viscosity of carboxymethyl cellulose is defined as 400-800 (mPas).
The components were mixed and the resulting mixture, i.e. the treatment preparation, was applied immediately (within seconds at the most one minute) to the treatment site, e.g. an ulcer. In this way there was provided that the mentioned chemical reaction forming halogenated amino acids occurs in contact with the treatment site. The resulting chemical reaction was allowed to proceed so as to separate dead tissue from healthy tissue as well as decomposing and/or destroying bacteria. The mixture in the form a solution was left within the treatment area, e.g. ulcer, for 5 minutes or less, wherein the reaction proceeds such that bubbles and a smell of chlorine appear and then disappear in the preparation. […]

Each structure is given as a SMILES string.

With `CC1(C)S[C@@H]2[C@H](NC(=O)COc3ccccc3)C(=O)N2[C@H]1C(=O)O` [fenoximetylpenicillin], the “resistance of cultivated Staphylococcus” value in the assay on Staphylococcus is recorded as “resistant”.

Regarding `Cc1onc(-c2c(F)cccc2Cl)c1C(=O)N[C@@H]1C(=O)N2[C@@H]1SC(C)(C)[C@@H]2C(=O)O` [Heracillin®], in the assay with amputation wound, the “effect of antibiotic on non-healing amputation wound” value is listed as “did not improve their condition”.

Regarding `Cc1onc(-c2c(F)cccc2Cl)c1C(=O)N[C@@H]1C(=O)N2[C@@H]1SC(C)(C)[C@@H]2C(=O)O` [flukloxacillin], the “resistance of cultivated Staphylococcus” value with Staphylococcus is “resistant”.
